Measurements taken from patent EP3250188B1, “PHARMACEUTICAL COMPOSITION COMPRISING APREPITANT AND METHOD FOR THE PREPARATION THEREOF” (Pharmathen S.A., priority 2015, dated 2016).
≈ marks a conversion by molar mass, not a printed value. Read-outs that look alike come from different tables or passages of the source.

Tests used:
[1] = Solubility study in FeSSIF (HPLC after 30 min stirring and centrifugation); type: physicochemical
Procedure: For the solubility study, a quantity of the solid dispersion equivalent to 10.0 mg of Aprepitant was dissolved in a 100ml volumetric flask with dissolution medium of fed state simulated intestinal fluid (FeSSIF) to a concentration of 0.1mg/ml. The solution was magnetically stirred for 30min and before injected in the HPLC it was centrifuged at 4000rpm for 5min. Finally the drug concentration was equated to the drug solubility. Table 1: Solubility of solid dispersion prepared according to example 1
Table 8: Solubilities of solid dispersions prepared by melt mixing

[2] = cited from earlier work
[3] = Dissolution, USP type II apparatus (paddles), 50 rpm, FeSSIF; type: physicochemical
Procedure: The rate and extent of drug dissolution was studied using a USP type II apparatus (paddles) at 50 rpm. The dissolution medium was a FeSSIF with pH 5.0. Table 2: Dissolution results of amorphous solid dispersions for different ratios of API to polymer compared with that of Aprepitant alone. The dissolution rate of the solid dispersions that present the best solubility was studied in USP II apparatus, 50rpm, FeSSIF medium.

- solubility at 30 min ([1]; fed state simulated intestinal fluid (FeSSIF), fessif, thermodynamic from solid, solid dispersions prepared by spray drying, nominal concentration 0.1mg/ml, stirred 30min): 50 µg/mL (≈ 93.6 µM)
- Solubility in FeSSIF ([1]; solid dispersions prepared by melt mixing at the stated temperature): 50 µg/mL (≈ 93.6 µM)
- % release ([3]; 15 min, FeSSIF medium, melt mixed solid dispersions): 17,37%
- % release ([3]; 15 min, FeSSIF pH 5.0, spray dried solid dispersions): 17,37%
- % release ([3]; 30 min, FeSSIF medium, melt mixed solid dispersions): 38,74%
- % release ([3]; 30 min, FeSSIF pH 5.0, spray dried solid dispersions): 38,74%
- % release ([3]; 45 min, FeSSIF medium, melt mixed solid dispersions): 45,34%
- % release ([3]; 45 min, FeSSIF pH 5.0, spray dried solid dispersions): 45,34%
- % release ([3]; 60 min, FeSSIF medium, melt mixed solid dispersions): 47,38%
- % release ([3]; 60 min, FeSSIF pH 5.0, spray dried solid dispersions): 47,38%
SMILES: C[C@@H](O[C@H]1OCCN(Cc2nc(=O)[nH][nH]2)[C@H]1c1ccc(F)cc1)c1cc(C(F)(F)F)cc(C(F)(F)F)c1 [Aprepitant]
- solubility ([2]; in acetonitrile): slightly soluble
- solubility ([2]; in ethanol): sparingly soluble
- solubility ([2]; in isopropyl acetate): sparingly soluble
- solubility ([2]; in water): practically insoluble
